Data as given in PubChem BioAssay (NCI).
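All cell lines were grown in 96-well plates and treated with compound for 48 hours. TGI: total growth inhibition.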

Tests used:
Test in all cases: DTP human tumour cell line panel, 48 h
786-0 renal = system: 786-0 renal
A498 renal = system: A498 renal
A549 NSCLC = system: A549 NSCLC
ACHN renal = system: ACHN renal
CCRF-CEM leukemia = system: CCRF-CEM leukemia
COLO 205 colon = system: COLO 205 colon
DLD-1 colon = system: DLD-1 colon
DMS 114 small cell lung = system: DMS 114 small cell lung
DMS 273 small cell lung = system: DMS 273 small cell lung
EKVX NSCLC = system: EKVX NSCLC
HCC-2998 colon = system: HCC-2998 colon
HCT-15 colon = system: HCT-15 colon
HL-60(TB) leukemia = system: HL-60(TB) leukemia
HOP-18 NSCLC = system: HOP-18 NSCLC
HOP-62 NSCLC = system: HOP-62 NSCLC
HOP-92 NSCLC = system: HOP-92 NSCLC
HT29 colon = system: HT29 colon
IGROV1 ovarian = system: IGROV1 ovarian
K-562 leukemia = system: K-562 leukemia
KM12 colon = system: KM12 colon
KM20L2 colon = system: KM20L2 colon
LOX IMVI melanoma = system: LOX IMVI melanoma
LXFL 529 NSCLC = system: LXFL 529 NSCLC
M14 melanoma = system: M14 melanoma
M19-MEL melanoma = system: M19-MEL melanoma
MALME-3M melanoma = system: MALME-3M melanoma
MOLT-4 leukemia = system: MOLT-4 leukemia
NCI-H226 lung = system: NCI-H226 lung
NCI-H460 lung = system: NCI-H460 lung
NCI-H522 lung = system: NCI-H522 lung
OVCAR-4 ovarian = system: OVCAR-4 ovarian
OVCAR-5 ovarian = system: OVCAR-5 ovarian
OVCAR-8 ovarian = system: OVCAR-8 ovarian
RPMI-8226 leukemia = system: RPMI-8226 leukemia
RXF 393 renal = system: RXF 393 renal
RXF-631 renal = system: RXF-631 renal
SF-268 CNS = system: SF-268 CNS
SF-295 CNS = system: SF-295 CNS
SF-539 CNS = system: SF-539 CNS
SK-MEL-2 melanoma = system: SK-MEL-2 melanoma
SK-MEL-28 melanoma = system: SK-MEL-28 melanoma
SK-OV-3 ovarian = system: SK-OV-3 ovarian
SNB-75 CNS = system: SNB-75 CNS
SW-620 colon = system: SW-620 colon
TK-10 renal = system: TK-10 renal
U251 CNS = system: U251 CNS
UACC-257 melanoma = system: UACC-257 melanoma
UACC-62 melanoma = system: UACC-62 melanoma
UO-31 renal = system: UO-31 renal
XF 498 CNS = system: XF 498 CNS
CAKI-1 renal = system: CAKI-1 renal
HCT-116 colon = system: HCT-116 colon
NCI-H23 lung = system: NCI-H23 lung
SK-MEL-5 melanoma = system: SK-MEL-5 melanoma
SN12C renal = system: SN12C renal
SNB-78 CNS = system: SNB-78 CNS
SR leukemia = system: SR leukemia
SNB-19 CNS = system: SNB-19 CNS

Measured: TGI

N/N=C(/Cc1ccccc1)NNC(N)=S
76 µM: NCI-H522 lung
not listed: CAKI-1 renal | HCT-116 colon | NCI-H23 lung | SK-MEL-5 melanoma | SN12C renal | SNB-78 CNS | SR leukemia | SNB-19 CNS
> 100 µM: all other assays above

N#C/C(=C/c1ccco1)C(=O)c1ccccc1
not listed: DMS 273 small cell lung | HOP-62 NSCLC | KM20L2 colon | RXF 393 renal | SNB-19 CNS
> 100 µM: all other assays above

CN(C)CCc1ccc(Cl)cc1Cl
not listed: DMS 273 small cell lung | NCI-H226 lung | SNB-78 CNS
> 100 µM: all other assays above
